Legend:
[1] = tested on: IMQ-induced psoriatic inflammation; experiment: IMQ-induced psoriatic inflammation model, #1 animal experiment (10 days); format: in vivo, Balb/c mice; details: for erythema, scaling, and thickness in lesional skins: photographic observation
Procedure: Balb/c mice were topical treated with imiquimod (IMQ) and with control cream, ASC-J9 or clobetasol for consecutive 10 days. (A) Schematic schedule was illustrated. Photographic observations in each group were shown at day 0 (B), day 5 (C) and day 10 (D).
Balb/c mice were topical treated with imiquimod (IMQ) and with control cream, ASC-J9 or clobetasol for consecutive 10 days. (A) The severity of inflammatory responses on the skin was assessed on the basis of the Psoriasis Area Severity Index. (B) Ten days after treatment, the mice were sacrificed and their skin thickness was measured with vernier caliper to assess the severity of the psoriatic responses. (C) Expession of cytokine genes in mouse skin after 10 day treatment by RT-qPCR. (D) H&E staining of lesional skin after 10 day treatment. *: p<0.05; **: […]; ns: not significant.
(§1) Animal Model of Psoriatic Inflammation: 30 or 40 mg of 5% IMQ gel (Aldara™) was smeared on the shaved backs of Balb/c mice each day for 5 or 10 days. The severity of the skin's inflammatory response was assessed on the basis of the Psoriasis Area Severity Index (PASI) as described. Briefly, the three parameters of psoriasis responses—erythema, scaling, and skin thickness—were scored independently on a scale from 0 to 4 as follows: 0: none; 1: slight; 2: moderate; 3: marked; and 4: very marked. By adding the scores from these three parameters, the severity of the response was measured using the cumulative score from 0 to 12. At the end of the experiment, the mice were sacrificed for measurement of skin thickness with vernier caliper. Group Assignments and Dose Levels of animal studies are described as follows:
(§2) The mice were (1) photoed for evaluation and analyzed (2) Psoriasis Area Severity Index (PASI); (3) Skin thickness measurement. We selected the sample in experiment with better inhibitory effect for further analysis by accessing: (1) H&E staining and (2) inflammatory gene expression including TNF-α, IL-1β, IL-17A, IL-22, IL-23 and IL-31 in lesional tissue by quantitative PCR (RT-qPCR).
We further evaluated anti-inflammatory effects of J9 on psoriatic inflammation in vivo. First, we compared the effects of J9 control cream, J9 cream and clobetasol on inhibition of IMQ-induced psoriatic inflammation in a 10-day experimental schedule (FIG. 5A). Mice of each group were photoed for evaluation at day 0, day 5 and day 10 (FIGS. 5B, 5C and 5D). […] In control cream group, there were no inhibitory effects observed (FIG. 5B). […] These phenomena were reached most severe at day 5 (FIGS. 5 and 6A). […] The skin thickness were measured at day 10. […] Expression of cytokine genes including TNF-α, IL-1β, IL-17A, IL-22, IL-23 and IL-31 in lesional skin were also analyzed. Of these cytokines, we observed that J9 attenuated IMQ-induced IL-1β expression at day 10 (FIG. 6C).

[2] = tested on: artemin (ARTN) expression in keloid patient derived fibroblasts 256K and 268K; experiment: ARTN mRNA expression in keloid patient derived fibroblasts by qPCR; format: cell-based, human; details: keloid fibroblasts 256K and 268K, 24 hr treatment, mRNA by qPCR vs GAPDH
Procedure: Two keloid patient derived fibroblasts named 256K and 268K were treated with ASC-J9 for 24 hr. The cells were then harvested and mRNA expression of ARTN and GAPDH were determined by qPCR.

[3] = tested on: IMQ-induced psoriatic inflammation; experiment: IMQ-induced psoriatic inflammation model, #2 animal experiment (5 days); format: in vivo, Balb/c mice; details: for IMQ-induced inflammation: photographic observation
Procedure: Balb/c mice were topical treated with imiquimod (IMQ) and with control cream, different dose of ASC-J9 for consecutive 5 days. (A) Schematic schedule was illustrated. Photographic observations in each group were shown at day 0 (B), day 5 (C).
Balb/c mice were topical treated with imiquimod (IMQ) and with control cream, different dose of ASC-J9 for consecutive 5 days. (A) The severity of inflammatory responses on the skin was assessed on the basis of the Psoriasis Area Severity Index. (B) Five days after treatment, the mice were sacrificed and their skin thickness was measured with vernier caliper to assess the severity of the psoriatic responses. […]
as §1, §2
To further understand the therapeutic effects of different concentration of J9 cream, 0.5% J9 (2 mg/cm^2 and 6 mg/cm^2), 0.1% J9 (10 mg/cm^2) and 0.05% J9 cream(2 mg/cm^2) were used to evaluate therapeutic effects on IMQ-induced psoriatic inflammation in a five-day experimental schedule (FIG. 7A). Mice of each group were photoed for evaluation at day 0 and day 5 (FIGS. 7B and 7C). […] PASI score, skin thickness and gene expression of lesional skin were also measured.

[4] = tested on: R848 induced cytokine expression in mouse splenocytes; experiment: R848 induced cytokine expression in mouse splenocytes by RT-qPCR; format: cell-based; details: 1 μM pre-treatment 1 hr, R848 6 hrs
Procedure: Mouse splenocytes were pre-treated with 1 μM of ASC-J9 or ASC-JM17 for 1 hour and then TLR ligand, R848 were added for 6 hours. Expression of mouse cytokine genes were measured by RT-qPCR. *: p<0.01.
(§3) Analysis of gene expression: Total RNA was purified from cells using Isol-RNA Lysis Reagent (5 PRIME GmbH, Hilden, Germany) according to the manufacturer's protocol. Reverse-transcription was performed using the QuantiNova® Reverse Transcription Kit (QIAGEN™) and oligo-dT primers for first-strand cDNA synthesis. Quantitative PCR was performed with gene-specific primers (see appendix) using LightCycler480 detection system (Roche Diagnostics GmbH, Penzberg, Germany) and QuantiNova® SYBR Green RT-PCR Kit for gene expression analysis. The level of mRNA expression was normalized to that of GAPDH.
(§4) Anti-inflammatory effects of J9 and JM17 for inflammatory cytokine including TNF-α, IL-1β, IL-17A, IL-22, IL-23 and IL-31 induced by TLR ligand in various immune cells including mouse splenocytes, mouse bone marrow derived dendritic cells and bone marrow derived macrophages were analyzed by quantitative PCR (RT-qPCR).
(§5) We also evaluate anti-inflammatory effects of J9 and JM17 on mouse splenocytes and bone marrow derived macrophages. Mouse splenocytes were pre-treated with J9 and JM17 for 1 hr and TLR ligand, R848, were then added for 6 hrs.

[5] = tested on: Fit3DC (mouse bone marrow derived dendritic cells, fit3-ligand induced); experiment: MTS assay for cell viability (cytotoxicity) on Fit3DC; format: cell-based; details: 24 hours, 0 μM to 10 μM tested
Procedure: (§6) Cells were treated with different concentration of ASC-J9 and ASC-JM17 for 24 hours. Viability of cells were measured by MTS Assays. *: p<0.05.
(§7) MTS assay for cell viability: The cell toxicity of test articles is measured by MTS assay. The MTS assay is based on the reduction of the MTS tetrazolium compound by viable cells to generate a colored formazan dye that is soluble in cell culture media. This conversion is thought to be carried out by NAD(P)H-dependent dehydrogenase enzymes in metabolically active cells. The formazan dye is quantified by measuring the absorbance at 490-500 nm. The non-toxic dose will be applied for further assays.
(§8) Cell culture: Mouse bone marrow derived dendritic cells (BMDC) and bone marrow derived macrophages (BMDM) were generated from mouse bone marrow cells. Briefly, dendritic cells can be generated by two induction procedures. Bone marrow cells can be induced into myeloid DCs called GMDC with GM-CSF and IL-4 for 10 days, while a mixed types of DCs including myeloid and plasmacytoid DCs called Fit3DC can be generated by induction with fit3-ligand for 10 days. […]
(§9) The goal of this example is to evaluate the anti-inflammatory abilities of J9 and JM17 on psoriatic inflammation in vitro and in vivo. To find the safety doses of J9 and JM17 for in vitro study, cytotoxicity of J9 and JM17 were measured by MTS assay. […]

[6] = tested on: GMDC (mouse bone marrow derived myeloid dendritic cells); experiment: MTS assay for cell viability (cytotoxicity) on GMDC; format: cell-based; details: 24 hours, 0 μM to 10 μM tested
Procedure: as §6, §7, §8, §9

[7] = tested on: R848 induced cytokine expression in mouse bone marrow derived macrophages (BMDM); experiment: R848 induced cytokine expression in bone marrow derived macrophages by RT-qPCR; format: cell-based; details: 1 μM pre-treatment 1 hour, R848 6 hours
Procedure: Macrophages were pre-treated with 1 μM of ASC-J9 or ASC-JM17 for 1 hour and then TLR ligand, R848 were added for 6 hours. Expression of mouse cytokine genes were measured by RT-qPCR. *: p<0.01; ns: not significant.
(§10) Cell culture: Mouse bone marrow derived dendritic cells (BMDC) and bone marrow derived macrophages (BMDM) were generated from mouse bone marrow cells. Briefly, dendritic cells can be generated by two induction procedures. Bone marrow cells can be induced into myeloid DCs called GMDC with GM-CSF and IL-4 for 10 days, while a mixed types of DCs including myeloid and plasmacytoid DCs called Fit3DC can be generated by induction with fit3-ligand for 10 days. To generate BMDMs, bone marrow cells are induced into BMDM by 30% L929 conditioned medium for 7 days.
as §3, §4, §5

[8] = tested on: inflammatory cytokine induced cytokine expression in dendritic cells (GMDC); experiment: TNF-α or IL-1β induced cytokine expression in GMDC by RT-qPCR; format: cell-based, mouse; details: GMDC pre-treated 1 hr, then TNF-α or IL-1β for 24 hrs
Procedure: Dendritic cells were pre-treated with different concentration of ASC-J9 and ASC-JM17 for 1 hour and then inflammatory cytokine TNF-α or IL-1β were added for 24 hours. Expression of mouse cytokine genes was measured by RT-qPCR. *: p<0.05; ns: not significant.
as §10, §3, §4
To evaluate the anti-inflammatory effects of J9 and JM17 in vitro, GMDC were pre-treated with J9 and JM17 for 1 hr and stimulated with the inflammatory cytokine, TNF-α or IL-1β[…]for 24 hrs. Expression of cytokines including TNF-α, IL-1β, IL-17A, IL-22, IL-23, and IL-31 were measured by RT-qPCR. […] Expression of IL-17A was not induced by TNF-α or IL-1β. […]

For `C[C@H]1C[C@H]2[C@@H]3CCC4=CC(=O)C=C[C@]4(C)[C@@]3(F)[C@@H](O)C[C@]2(C)[C@@]1(O)C(=O)CCl` [clobetasol, reference compound], the skin thickness ([1]; clobetasol 0.05% 8 mg/cm^2, day 10, compared to sham control group) was “reduced skin thickness compared to sham control group” and the “IMQ-induced erythema, scaling and increase of skin thickness in lesional skin” value ([1]; clobetasol 0.05% 8 mg/cm^2 topical daily, after 5 day treatment) was “strongly inhibited”.
In the case of `COc1ccc(/C=C/C(=O)CC(=O)/C=C/c2ccc(OC)c(OC)c2)cc1OC` [ASC-J9], the “artemin (ARTN) expression (pruritus marker)” value [2] is reported as “down-regulating”, the “IMQ-induced expression of IL-1(3 in lesional skin)” value ([3]; 0.1% J9 10 mg/cm^2, RT-qPCR) is reported as “inhibited” and the “IMQ-induced expression of TNF-a in lesional skin” value ([3]; 0.1% J9 10 mg/cm^2, RT-qPCR) is reported as “inhibited”. The IMQ-induced inflammation ([3]; 0.1% J9 10 mg/cm^2, after 5 day treatment) was “inhibited”, the PASI scores ([3]; 0.1% J9 10 mg/cm^2, at day 4 to day 5) was “marked decreased” and the “IMQ-induced expression of IL-1(3 in lesional skin)” value ([3]; 0.5% J9 2 mg/cm^2, RT-qPCR) was “inhibited”. For the same compound, the “IMQ-induced expression of TNF-a in lesional skin” value ([3]; 0.5% J9 2 mg/cm^2, RT-qPCR) was “inhibited”, the IMQ-induced inflammation ([3]; 0.5% J9 2 mg/cm^2, after 5 day treatment) was “inhibited” and the PASI scores ([3]; 0.5% J9 2 mg/cm^2, at day 4 to day 5) was “marked decreased”. The “IMQ-induced expression of IL-1(3 in lesional skin)” value ([3]; 0.5% J9 6 mg/cm^2, RT-qPCR) was “inhibited”, the “IMQ-induced expression of TNF-a in lesional skin” value ([3]; 0.5% J9 6 mg/cm^2, RT-qPCR) was “inhibited” and the IMQ-induced inflammation ([3]; 0.5% J9 6 mg/cm^2, after 5 day treatment) was “inhibited”. The PASI scores ([3]; 0.5% J9 6 mg/cm^2, at day 4 to day 5) was “marked decreased”, the “R848 induced IL-1β expression” value [4] was “significantly inhibited” and the “R848 induced IL-17A expression” value [4] was “significantly inhibited”. The “R848 induced IL-22 expression” value [4] was “significantly inhibited”, the “R848 induced TNF-α expression” value [4] was “significantly inhibited” and the “non-toxic doses (cells resistant up to)” value [5] was “up to 10 μM”. The “erythema, scaling, and thickness in lesional skins” value ([1]; 0.5% J9 cream 2 mg/cm^2 topical daily, after 5 day treatment) was “significantly reduced”, the “erythema, scaling, and thickness in lesional skins” value ([1]; 0.5% J9 cream 10 mg/cm^2 topical daily, after 5 day treatment) was “significantly reduced” and the “IMQ-induced increase of skin thickness” value ([1]; J9 2 mg/cm^2, measured at day 10 with vernier caliper) was “significantly inhibited”. For the same compound, the “Psoriasis Area Severity Index (PASI) score” value ([1]; J9 2 mg/cm^2 topical daily, at day 3 to day 10) was “significantly decreased”, the “IMQ-induced increase of skin thickness” value ([1]; J9 10 mg/cm^2, measured at day 10 with vernier caliper) was “significantly inhibited” and the “Psoriasis Area Severity Index (PASI) score” value ([1]; J9 10 mg/cm^2 topical daily, at day 4 to day 6) was “significantly decreased”. For the same compound, the “IMQ-induced IL-1β expression in lesional skin” value ([1]; at day 10, RT-qPCR) was “attenuated”, the “thickeness of the epidermis and dermis and keratinocyte proliferation in epidermis and inflammation (H&E staining)” value ([1]; lesional skin after 10 day treatment) was “reduced” and the “non-toxic doses (cells resistant up to)” value [6] was “up to 10 μM”. For the same compound, the “R848-induced expression of IL-1β” value [7] was “inhibited”, the “R848-induced expression of IL-17A” value [7] was “inhibited” and the “R848-induced expression of IL-22” value [7] was “inhibited”. The “R848-induced expression of IL-31” value [7] was “inhibited”, the “R848-induced expression of TNF-α” value [7] was “inhibited” and the “TNF-α or IL-1β induced IL-1β expression” value [8] was “significantly inhibit”. The “TNF-α or IL-1β induced IL-22 expression” value [8] was “did not attenuate” and the “TNF-α or IL-1β induced TNF-α expression” value [8] was “significantly inhibit”.

Source: US20200214999A1, “Method for Treating an Inflammatory Disorder” (Allianz Pharmascience Ltd., priority 2019, published 2020)
